Converted amounts (≈) assume the structure as drawn.
Legend:
PC3 = assay: cells; settings: Homo sapiens, PC-3, read-out: Absolute EC50, growth inhibition
HUVEC = assay: cells; settings: Homo sapiens, read-out: Absolute EC50, growth inhibition
Caki1 = assay: cells; settings: Homo sapiens, CAKI-1, read-out: Absolute EC50, growth inhibition
HT1367 = assay: cells; settings: Homo sapiens, read-out: Absolute EC50, growth inhibition

`COc1ccc([C@H](C)NC(=O)[C@@H]2C[C@@H](O)CN2C(=O)CNC(=O)c2ccc3cc(F)ccc3n2)c(Cl)c1` [CAM833, N-(2-((2S,4R)-2-(((S)-1-(2-chloro-4-methoxyphenyl)ethyl)carbamoyl)-4-hydroxypyrrolidin-1-yl)-2-oxoethyl)-6-fluoroquinoline-2-carboxamide] showed an EC50 (PC3) of 91.2 µM, an EC50 (HUVEC) of 133 µM and an EC50 (Caki1) of 73 µM. The EC50 (HT1367) was 104 µM, the solubility (Aqueous solubility; pH 7.4 buffer, pH 7.4, aqueous buffer, thermodynamic from solid) was 7.75 µg/mL (≈ 14.7 µM) and the “solubility (in words)” value (Aqueous solubility; summary of Table S1) was “moderate”.

From article PMC8219027, “A small-molecule inhibitor of the BRCA2-RAD51 interaction modulates RAD51 assembly and potentiates DNA damage-induced cell death” (Cell Chemical Biology, 2021)
